This is an account of results in patent publication US8420655B2, “Benzimidazole inhibitors of leukotriene production” (Boehringer Ingelheim International GmbH, priority 2009, dated 2013).

SMILES strings stand for the structures.

This assay addresses T1, recombinant human FLAP protein (Homo sapiens, UniProt P20292).
T1 construct: made in house; host or cells: Sf9 insect cells (membrane fraction, 100,000 x g pellet)
T1 sequence (P20292 1-161): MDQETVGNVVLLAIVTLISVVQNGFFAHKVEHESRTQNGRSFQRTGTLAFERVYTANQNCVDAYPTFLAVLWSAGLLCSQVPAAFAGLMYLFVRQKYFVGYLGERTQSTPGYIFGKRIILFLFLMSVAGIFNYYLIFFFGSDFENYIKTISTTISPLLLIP
The assay can be described thus: FLAP binding assay, displacement of iodinated (125I) FLAP inhibitor, Scintillation Proximity Assay format. Particulars: [125I]L-691,831 probe, membrane protein from sf9 cells; read-out: hFLAP binding IC50. How it is done:
Compounds are assessed for the ability to bind to FLAP in a binding assay that measures compound-specific displacement of an iodinated (^125I) FLAP inhibitor via a Scintillation Proximity Assay format (adapted from S. Charleson et al., Mol. Pharmacol., 1992, 41, 873-879).
Cell pellets produced from sf9 insect cells expressing recombinant human FLAP protein are resuspended in buffer A [15 mM Tris-HCl (pH 7.5), 2 mM MgCl2, 0.3 mM EDTA, 1 mM PMSF]. The cells are lysed with a Dounce homogenizer and the material is centrifuged at 10,000×g for 10 minutes. The supernatant is then collected and centrifuged at 100,000×g for 60 minutes. To prepare membrane protein for an assay, an aliquot of the 100,000×g pellet is resuspended in 1 ml of buffer A, Dounce homogenized, and finally subjected to polytron mixing (30 seconds). Membrane protein (25 μl, 5 μg) is mixed with WGA SPA beads (Amersham) and stirred for 1 h. To an assay plate (Perkin Elmer FlexiPlate) is added 25 μl of test compound prepared in Binding buffer [100 mM Tris (pH 7.5), 140 mM NaCl, 5% glycerol, 2 mM EDTA, 0.5 mM TCEP, 0.05% Tween 20], 25 μl of [^125I]L-691,831 (an iodinated analog of MK-591, Charleson et al. Mol. Pharmacol., 41, 873-879, 1992) and finally 50 μl of the bead/protein mixture. (final concentrations: beads, 200 μg/well; protein, 5 μg/well; [^125I] probe, 0 08 nM/well (17 nCi/well). The plates are shaken for 2 h before reading on a Microbeta plate reader. Non-specific binding is determined by the addition of 10 μM cold L-691,831 compound.
(Scintillation proximity formats need no separation of bound from free tracer.)
One may read the IC50 as the concentration needed to halve the response being measured. Take `C=Cc1ccc(-n2cncn2)c(-c2nc3cc(-c4cnc(N)nc4)ccc3n2C(C)(C)C)c1` [5-[1-tert-Butyl-2-(2-1,2,4-triazol-1-yl-5-vinyl-phenyl)-1H-benzimidazol-5-yl]-pyrimidin-2-ylamine]: the 50% inhibitory concentration (IC50) was 1.3 nM.
In the case of `CC(C)(C)n1c(-c2cccc(F)c2-n2cncn2)nc2cc(-c3cnc(N)nc3)ccc21` [5-[1-tert-Butyl-2-(3-fluoro-2-1,2,4-triazol-1-yl-phenyl)-1H-benzimidazol-5-yl]-pyrimidin-2-ylamine] it was 1.7 nM; in that of `CC(C)(C)n1c(-c2ccc(Cl)cc2-n2cncn2)nc2cc(-c3cnc(N)nc3)ccc21` [5-[1-tert-Butyl-2-(4-chloro-2-1,2,4-triazol-1-yl-phenyl)-1H-benzimidazol-5-yl]-pyrimidin-2-ylamine], 1.7 nM.
Turning to `COc1ccc(-c2nc3cc(-c4cnc(N)nc4)ccc3n2C(C)(C)C)c(-n2cncn2)c1` [5-[1-tert-Butyl-2-(4-methoxy-2-1,2,4-triazol-1-yl-phenyl)-1H-benzimidazol-5-yl]-pyrimidin-2-ylamine], the IC50 is 2.9 nM.
In the case of `CC(C)(C)n1c(-c2cc(Cl)ccc2-n2cncn2)nc2cc(-c3cnc(N)nc3)ccc21` [5-[1-tert-Butyl-2-(5-chloro-2-1,2,4-triazol-1-yl-phenyl)-1H-benzimidazol-5-yl]-pyrimidin-2-ylamine] it was 3 nM.
In the case of `CC(C)(C)n1c(-c2cc(Cl)ccc2-n2cccn2)nc2cc(-c3cnc(N)nc3)ccc21` [5-[1-tert-Butyl-2-(5-chloro-2-pyrazol-1-yl-phenyl)-1H-benzimidazol-5-yl]-pyrimidin-2-ylamine] it was 1.3 nM; in that of `CCOCc1ccc(-n2cncn2)c(-c2nc3cc(-c4cnc(N)nc4)ccc3n2C(C)(C)C)c1` [5-[1-tert-Butyl-2-(5-ethoxymethyl-2-[1,2,4]triazol-1-yl-phenyl)-1H-benzoimidazol-5-yl]-pyrimidin-2-ylamine], 10 nM; in that of `CCc1ccc(-n2cncn2)c(-c2nc3cc(-c4cnc(N)nc4)ccc3n2C(C)(C)C)c1` [5-[1-tert-Butyl-2-(5-ethyl-2-1,2,4-triazol-1-yl-phenyl)-1H-benzimidazol-5-yl]-pyrimidin-2-ylamine], 2.4 nM.
In the case of `CC(C)(C)n1c(-c2cc(F)ccc2-n2cccn2)nc2cc(-c3cnc(N)nc3)ccc21` [5-[1-tert-Butyl-2-(5-fluoro-2-pyrazol-1-yl-phenyl)-1H-benzimidazol-5-yl]-pyrimidin-2-ylamine] it was 1.7 nM; in that of `CC(C)(C)n1c(-c2cc(I)ccc2-n2cncn2)nc2cc(-c3cnc(N)nc3)ccc21` [5-[1-tert-Butyl-2-(5-iodo-2-1,2,4-triazol-1-yl-phenyl)-1H-benzimidazol-5-yl]-pyrimidin-2-ylamine], 2.7 nM.
Turning to `CC(C)Oc1ccc(-n2cncn2)c(-c2nc3cc(-c4cnc(N)nc4)ccc3n2C(C)(C)C)c1` [5-[1-tert-Butyl-2-(5-isopropoxy-2-1,2,4-triazol-1-yl-phenyl)-1H-benzimidazol-5-yl]-pyrimidin-2-ylamine], the IC50 was 2.2 nM.
Next, `CC(C)(C)n1c(-c2cc(S(C)(=O)=O)ccc2-n2cncn2)nc2cc(-c3cnc(N)nc3)ccc21` [5-[1-tert-Butyl-2-(5-methanesulfonyl-2-[1,2,4]triazol-1-yl-phenyl)-1H-benzoimidazol-5-yl]-pyrimidin-2-ylamine]: 36.8 nM; `COc1ccc(-n2cncn2)c(-c2nc3cc(-c4cnc(N)nc4)ccc3n2C(C)(C)C)c1` [5-[1-tert-Butyl-2-(5-methoxy-2-1,2,4-triazol-1-yl-phenyl)-1H-benzimidazol-5-yl]-pyrimidin-2-ylamine]: 1.7 nM; `COc1ccc(-n2cccn2)c(-c2nc3cc(-c4cnc(N)nc4)ccc3n2C(C)(C)C)c1` [5-[1-tert-Butyl-2-(5-methoxy-2-pyrazol-1-yl-phenyl)-1H-benzimidazol-5-yl]-pyrimidin-2-ylamine]: 5.2 nM.
Consider `COCc1ccc(-n2cncn2)c(-c2nc3cc(-c4cnc(N)nc4)ccc3n2C(C)(C)C)c1` [5-[1-tert-Butyl-2-(5-methoxymethyl-2-[1,2,4]triazol-1-yl-phenyl)-1H-benzoimidazol-5-yl]-pyrimidin-2-ylamine], for which the IC50 was 13.9 nM.
In the case of `CC(C)(C)n1c(-c2ccccc2-c2ccno2)nc2cc(-c3cnc(N)nc3)ccc21` [5-[1-tert-butyl-2-(2-isoxazol-5-yl-phenyl)-1H-benzoimidazol-5-yl]-pyrimidin-2-ylamine] it was 2.4 nM.
In the case of `CC(C)(C)n1c(-c2cc(Br)ccc2-n2cncn2)nc2cc(-c3cnc(N)nc3)ccc21` [5-[2-(5-Bromo-2-1,2,4-triazol-1-yl-phenyl)-1-tert-butyl-1H-benzimidazol-5-yl]-pyrimidin-2-ylamine] it was 4.5 nM; in that of `Cc1nc(-c2ccccc2-c2nc3cc(-c4cnc(N)nc4)ccc3n2C(C)(C)C)n(C)n1` [5-{1-tert-Butyl-2-[2-(2,5-dimethyl-2H-1,2,4-triazol-3-yl)-phenyl]-1H-benzimidazol-5-yl}-pyrimidin-2-ylamine], 1.8 nM.
In the case of `Cn1ncnc1-c1ccccc1-c1nc2cc(-c3cnc(N)nc3)ccc2n1C(C)(C)C` [5-{1-tert-Butyl-2-[2-(2-methyl-2H-1,2,4-triazol-3-yl)-phenyl]-1H-benzimidazol-5-yl}-pyrimidin-2-ylamine] it was 6.1 nM; in that of `Cn1nnc(-c2ccccc2-c2nc3cc(-c4cnc(N)nc4)ccc3n2C(C)(C)C)n1` [5-{1-tert-Butyl-2-[2-(2-methyl-2H-tetrazol-5-yl)-phenyl]-1H-benzimidazol-5-yl}-pyrimidin-2-ylamine], 1.3 nM.
For `Cc1ncn(-c2ccccc2-c2nc3cc(-c4cnc(N)nc4)ccc3n2C(C)(C)C)n1` [5-{1-tert-Butyl-2-[2-(3-methyl-1,2,4-triazol-1-yl)-phenyl]-1H-benzimidazol-5-yl}-pyrimidin-2-ylamine], the IC50 was found to be 1.6 nM.
On to `Cc1ccn(-c2ccccc2-c2nc3cc(-c4cnc(N)nc4)ccc3n2C(C)(C)C)n1` [5-{1-tert-Butyl-2-[2-(3-methyl-pyrazol-1-yl)-phenyl]-1H-benzimidazol-5-yl}-pyrimidin-2-ylamine], for which the IC50 came out at 1.1 nM.
Next, `CC(C)(C)n1c(-c2ccccc2-n2ccc(C(F)(F)F)n2)nc2cc(-c3cnc(N)nc3)ccc21` [5-{1-tert-Butyl-2-[2-(3-trifluoromethyl-pyrazol-1-yl)-phenyl]-1H-benzimidazol-5-yl}-pyrimidin-2-ylamine]: 4.5 nM; `COc1ccc(-n2cc(Cl)cn2)c(-c2nc3cc(-c4cnc(N)nc4)ccc3n2C(C)(C)C)c1` [5-{1-tert-Butyl-2-[2-(4-chloro-pyrazol-1-yl)-5-methoxy-phenyl]-1H-benzimidazol-5-yl}-pyrimidin-2-ylamine]: 1.6 nM; `CC(C)(C)n1c(-c2ccccc2-n2cc(Cl)cn2)nc2cc(-c3cnc(N)nc3)ccc21` [5-{1-tert-Butyl-2-[2-(4-chloro-pyrazol-1-yl)-phenyl]-1H-benzimidazol-5-yl}-pyrimidin-2-ylamine]: 4.1 nM.
Consider `Cc1ncnn1-c1ccccc1-c1nc2cc(-c3cnc(N)nc3)ccc2n1C(C)(C)C` [5-{1-tert-Butyl-2-[2-(5-methyl-1,2,4-triazol-1-yl)-phenyl]-1H-benzimidazol-5-yl}-pyrimidin-2-ylamine], for which the IC50 amounted to 3.3 nM.
In the case of `CC(C)(C)n1c(-c2ccc(OC3CCOC3)cc2-n2cncn2)nc2cc(-c3cnc(N)nc3)ccc21` (stereo not drawn) [5-{1-tert-Butyl-2-[4-(tetrahydro-furan-3-yloxy)-2-1,2,4-triazol-1-yl-phenyl]-1H-benzimidazol-5-yl}-pyrimidin-2-ylamine] it was 10.6 nM; in that of `Cc1c(-c2ccc(-n3cncn3)c(-c3nc4cc(-c5cnc(N)nc5)ccc4n3C(C)(C)C)c2)cnn1C` [5-{1-tert-Butyl-2-[5-(1,5-dimethyl-1H-pyrazol-4-yl)-2-[1,2,4]triazol-1-yl-phenyl]-1H-benzoimidazol-5-yl}-pyrimidin-2-ylamine], 4 nM.
Next, `Cn1cc(-c2ccc(-n3cncn3)c(-c3nc4cc(-c5cnc(N)nc5)ccc4n3C(C)(C)C)c2)cn1` [5-{1-tert-Butyl-2-[5-(1-methyl-1H-pyrazol-4-yl)-2-[1,2,4]triazol-1-yl-phenyl]-1H-benzoimidazol-5-yl}-pyrimidin-2-ylamine]: 2.4 nM; `CC(C)(C)n1c(-c2cc(-c3nn[nH]n3)ccc2-n2cncn2)nc2cc(-c3cnc(N)nc3)ccc21` [5-{1-tert-Butyl-2-[5-(2H-tetrazol-5-yl)-2-[1,2,4]triazol-1-yl-phenyl]-1H-benzoimidazol-5-yl}-pyrimidin-2-ylamine]: 4.6 nM.
